# Reference: patent US4871528A, “Pharmaceutical compositions having antineoplastic activity” (Boehringer Biochemia Robin SpA, priority 1986, dated 1989)
# Where two headings read alike, the source gives them in different places.
# Assays:
# [1] = tested on: anthracycline (doxorubicin) induced myocardiotoxicity; assay: Protective effect of glutathione on doxorubicin induced myocardiotoxicity in rats; assay type: in vivo, Sprague Dawley rats; conditions: doxorubicin 3 mg/kg i.v. and/or GSH i.v. 30 minutes before, every 7 days, 4 times; 8 weeks
# Experimental: Twenty-four Sprague Dawley rats, weighing 150-200 g, fed with standard diet and water "ad libitum", were randomized in 4 groups (A,B,C,D) 6 animals each.
# Six animals were treated i.v. in the morning (10 am.) with […]) dissolved in normal saline (total injected volume 1 ml/kg). After 30 minutes, the same animals were treated i.v. with doxorubicin (3 mg/kg) dissolved in normal saline (total injected volume 1 ml/kg).
# The treatment has been then repeated after 7 days, for 4 consecutive times as a whole.
# Six animals were treated similarly to group A, except that glutathione was omitted and substituted with normal saline only.
# Six animals were treated similarly to group A, except that doxorubicin was substituted with normal saline only.
# Six animals were treated similarly to group A except that both drugs were substituted with normal saline.
# The day of the first administration was defined "zero day" and all the animals were killed after 8 weeks from the start of the experiment.
# During the experiment, starting from the zero time, all the animals were evaluated weekly for body weight increase, electrocardiographic intervals Q-T and S-T.
# After the 8-week experiment, the necroscopic examination allowed to evaluate for each animal the degree of myocardial lesions expressed as an average of vacuolate cells for 10 observation fields at the optical microscope (200 x).
# [2] = tested on: P388 leukemia; assay type: in vivo
# Experimental: In the Table 1, the results obtained in CD2F1 mice i.p. treated at the day 0 with […] P388 leukemia cells and treated. i.p. at the day 1 with doxorubicin (DX) (7.5 mg/kg) and/or with GSH (333 mg/mg doxorubicin) are reported.
# The GSH was administered 30 min. before DX.
# The experiment of the combination GSH+DX was repeated in 2 groups of animals.
# TMS means mean survival time in days, T/C % is a percent value of the response of drug treated animals in comparison with the control, taken as 100.
# TOX means the number of treated animals died before the control animals. LTS is the number of animals survived at long term (2 months at least).
# It should be stressed that the test used an experimental model, the P388 leukemia, characterized by an exclusively intraperitoneal tumor growth, i.e. a growth in the cavity wherein the insulation of the tumoral cells has been carried out.
# [3] = tested on: P388 leukemia; assay: Effect of GSH (i.v.) at different doxorubicin dosages (i.p.) on P388 leukemia in mice (Table 2); assay type: in vivo; conditions: for LTS >60 days / T/C % / TOX: in combination GSH 1500 mg/kg i.v.; for TMS: in combination GSH 1500 mg/kg i.v. 30' before
# Experimental: The experimental conditions are similar to that of the previous test.
# In these tests, the glutathione has been administered i.v., 30' before of the optional i.p. administration of anthracycline, doxorubicin.
# The GSH treated animals received an equal amount of drug (1500 mg/kg) whereas the doxorubicin treated animals received i.p. scalar amounts of anthracycline. The animals consecutively treated with GSH and DX received the two drugs in the ratios of 100, 125, 150 and 200 mg of GSH per mg of DX.
# [4] = tested on: P388 leukemia; assay: GSH and Doxorubicin effect on P388 leukemia in CD2F1 mice (Table 3); assay type: in vivo; conditions: GSH 375 mg/kg i.v. and/or DX 7,5 mg/kg i.p. (GSH/DX 50)
# Experimental: (§1) The experiments were carried out in a similar way to the experimental scheme of the previous tests 2 and 3. The glutathione was administered i.v. 30, before of doxorubicin. In the tests, whose experimental data are reported in the Tables 3 and 4, the doxorubicin is administered i.p. at a sub-optimal dose level (for the used treatment schedule), in order to evidentiate the synergic effect of the glutathione treatment.
# In the test of Table 3 wherein P388 leukemic cells were inoculated, variable dosages of glutathione were used, with respect to the fixed dose of DX (7.5 mg/kg) so as to provide GSH/DX ratios respectively of 20 and 50 mg of GSH per mg of DX.
# [5] = tested on: P388/DX resistant leukemic cells; assay: Effect of GSH and doxorubicin on DX-resistant P388/DX leukemia in CD2F1 mice (Table 4); assay type: in vivo
# Experimental: as §1
# In the case of inoculation of P388/DX resistant leukemic cells an intermediate dose of glutathione was administered, corresponding to GSH/DX ratio of 25 mg/mg (total dose of GSH 187.5).
# [6] = tested on: P388 leukemia; assay: Effect of GSH (i.v.) at different doxorubicin dosages (i.p.) on P388 leukemia in mice (Table 2); assay type: in vivo; conditions: DX 12,5 mg/kg i.p.
# [7] = tested on: human HT-29 cells (colon carcinoma); assay: In vitro activity of GSH and methotrexate on human HT-29 cells; assay type: cell-based; conditions: MTX 24 h, read-out: concentration causing 50% of cell death
# Experimental: (5) In vitro activity of GSH and methotrexate (MTX) on human HT-29 cells (colon carcinoma). Human HT-29 cells (colon carcinoma) were used; the cells were pre-treated with GSH at the concentrations of 20 and 40 mg/ml and then exposed to MTX at the concentrations of 0.05, 0.1, 0.5 and 1 mg/ml for 24 h. The concentrations causing 50% of cell death turned out to be 0.12 mg/ml in the absence of GSH and about 0.04-0.06 mg/ml in the presence of GSH. The cells were cultivated in RPMI 1640 medium+10% of fetal calf serum.
# [8] = tested on: advanced and relapsing ovarian tumor; assay: high-dose cis-platinum+GSH in a patient with advanced and relapsing ovarian tumor (Example 3A); assay type: in vivo, human; conditions: in combination with glutathione
# Experimental: However, in the therapeutical practice, the treatment is usually interrupted after 2 or 3 cycles (400 mg/m^2 or 600 mg/m^2) because of the onset of serious side-effects, which can even be fatal.
# A patient having an advanced and relapsing ovarian tumor previously treated with cis-platinum, was treated with a combination of cis-platinum+GSH every four weeks. Cis-platinum was administered at a weekly dosage of 200 mg/m^2 (40 mg/m^2 i.v. in normal saline at 1-5 days) for five weeks; GSH was administered i.v. at a dosage of 35 mg/ mg of cis-platinum in normal saline, 30 minutes before administration of cis-platinum. The week of administration (5 administrations) was followed by three weeks of rest, and then the cycle was repeated, and so on, for a total of 5 cycles of administration extending over 17 weeks (5 weeks of actual treatment and 12 weeks (3 weeks X 4) of rest intervals).
# [9] = tested on: advanced and relapsing ovarian tumor; conditions: administered without glutathione; severe side-effects; cited from earlier work
# [10] = day 1 i.p.: DX 7.5 mg/kg and/or GSH 333 mg/mg doxorubicin
# [11] = GSH 187,5 mg/kg i.v. and/or DX 7,5 mg/kg i.p.
# [12] = in combination GSH 1500 mg/kg i.v.
compound,measurement,setting,value
"COc1cccc2c1C(=O)c1c(O)c3c(c(O)c1C2=O)C[C@@](O)(C(=O)CO)C[C@@H]3O[C@H]1C[C@H](N)[C@H](O)[C@H](C)O1 [DX, doxorubicin]","body growth curve, ECG recording (Q-T, S-T), number of vacuolate myocardial cells",[1],toxic and cardiological effects
same,"LTS (number of animals survived at long term, 2 months at least)",[2]; [10],0/10
same,T/C %,[2]; [10],140%
same,TOX (number of treated animals died before the control animals),[2]; [10],0/10
same,TMS (mean survival time),[2]; day 1 i.p.: DX 7.5 mg/kg and/or GSH 333 mg/mg doxorubicin 30 min. before DX,16 days
same,LTS >60 days,[3]; DX 10 mg/kg i.p.,0/8
same,T/C %,[3]; DX 10 mg/kg i.p.,170%
same,TOX,[3]; DX 10 mg/kg i.p.,0/8
same,TMS,[3]; DX 10 mg/kg i.p.,17 days
same,LTS >60 days,[3]; DX 15 mg/kg i.p.,0/8
same,T/C %,[3]; DX 15 mg/kg i.p.,60%
same,TOX,[3]; DX 15 mg/kg i.p.,8/8
same,TMS,[3]; DX 15 mg/kg i.p.,6 days
same,LTS >60 days,"[3]; DX 7,5 mg/kg i.p.",0/8
same,T/C %,"[3]; DX 7,5 mg/kg i.p.",155%
same,TOX,"[3]; DX 7,5 mg/kg i.p.",0/8
same,TMS,"[3]; DX 7,5 mg/kg i.p.","15,5 days"
same,LTS >60 days,"[3]; DX 12,5 mg/kg i.p.",0/8
same,LTS,[4],0/10
same,T/C %,[4],163%
same,TMS,[4],"16,7 days"
same,TOX,[4],0/10
same,LTS,[5]; [11],0/10
same,T/C %,[5]; [11],118%
same,TOX,[5]; [11],0/10
same,TMS,"[5]; GSH 187,5 mg/kg i.v. and/or DX 7,5 mg/kg i.p. (GSH/DX 25 mg/mg)","11,4 days"
same,T/C %,[6]; [12],120%
same,TOX,[6]; [12],4/8
same,TMS,[6]; in combination GSH 1500 mg/kg i.v. 30' before,12 days
"CN(Cc1cnc2nc(N)nc(N)c2n1)c1ccc(C(=O)N[C@@H](CCC(=O)O)C(=O)O)cc1 [MTX, methotrexate]",IC50,[7]; in the absence of GSH,120 µg/mL
same,IC50,[7]; in the presence of GSH (pre-treated at 20 and 40 mg/ml),40 to 60 µg/mL
"N.N.[Cl][Pt][Cl] [CDDP, cis-diamine-dichloroplatinum]",maximum applicable dosage of cis-platinum,[8],about 1000 mg/m^2
same,maximum dosage of cis-platinum,[9],400-600 mg/m^2
